Data on 35 molecules can be found in patent US5604226A, “Pyridazinone derivatives, processes for production thereof and use thereof” (Nihon Nohyaku Co., Ltd., priority 1993, dated 1997).

In general, inhibition refers to the change of the read-out against control, counted positive when it falls.

Assay [1] concerns Platelet aggregation (ADP, rabbit platelet rich plasma). The experiment in a line: Platelet aggregation inhibition in rabbit PRP, ADP-induced, Born's turbidimetry (Experiment 1). The format is cell-based. The following applies: Oryctolagus cuniculus, 0.05 h, ADP 2 to 4 μM, 3 min incubation, read-out: Aggregation Inhibition Rate; for inhibition at 1 µg/mL: 10^-6 g/ml; for inhibition at 0.1 µg/mL: 10^-7 g/ml. The method, then:
Blood was collected from the ear vein of rabbit, together with 1/10 volume sodium citrate. Centrifugation at 1,200 rpm for 10 minutes gave the supernatant which was made platelet rich plasma (PRP). The blood was further centrifuged at 3,000 rpm for 10 minutes to give platelet poor plasma (PPP). The platelet count of PRP was adjusted to 300,000/μl with PPP, which was provided for the test. Platelet aggregation was determined with aggregometer (HEMATRACERVI, Niko Bioscience Co.) based on Born's turbidimetry. That is, 200 μl of PRP was charged in a cell and 1 μl of a drug solution dissolved in dimethylsulfoxide was added thereto. After incubation for 3 minutes, ADP was added in a concentration of 2 to 4 μM to cause aggregation. Change in transmittance in the cell was then monitored. The results are shown in Table 2, in terms of aggregation inhibition rate which was determined by comparing a transmittance of control with that obtained at the maximum aggregation on an aggregation curve when the transmittance of PRP was made 0% and the transmittance of PPP was made 100%.

Assay [2] deals with thrombocytopenia in mice (collagen-induced, platelet count). Briefly: Activity of preventing thrombocytopenia in mice, collagen i.v. (Experiment 3). The following applies: Mus musculus, 3.0 mg/kg oral, 1 hour before collagen 0.5 mg/kg i.v., * p = 5%, ** p = 1%, *** p = 0.1%, read-out: Average Inhibition Rate (platelet count; normal mouse 100, control mouse 0). The class given is in vivo, male ddY mice. The protocol: Activity of preventing thrombocytopenia in mice:
Collagen (Holm Co.) diluted with physiological saline was intravenously given through the vein to male ddY mice of 6 weeks old, weighing 28-31 g, which had been fasted for 4-5 hours, in a dose of 0.5 mg/kg. Five minutes after, blood was collected from the lower thigh vein under pentobarbital anesthesia through a plastic syringe treated with heparin containing 3.8% sodium citrate. The drug was orally given an hour before the collagen administration. The platelet count was measured with Sysmex E-4000. The inhibition activity is shown in terms of percentage of the platelet count when the platelet count of normal mouse was made 100 and the platelet count of control mouse was made 0.

Take `O=c1[nH]nc(OCCCc2ccccc2)c(NCc2cccnc2)c1Br` [Comparative Compound A, reference compound]: in assay [1], the inhibition at 1 µg/mL was 100% and the inhibition at 0.1 µg/mL came out at 84%.

Take `COc1ccc(CNc2c(OCCOc3ccccc3)n[nH]c(=O)c2Br)cc1OC` [Comparative Compound B, reference compound]: the inhibition at 0.1 µg/mL in assay [1] is 79%.

As for `O=c1[nH]nc(OCCSc2ccccc2)c(NCc2cccnc2)c1Cl` [Compound 1], in assay [1], the inhibition at 1 µg/mL came to 100% and the inhibition at 0.1 µg/mL came out at 37%.

Turning to `O=c1[nH]nc(OCCCSc2ccccc2)c(NCc2cccnc2)c1Cl` [Compound 2, 4-chloro-6-[3-(phenylthio)propyloxy]-5-(3-picolylamino)-3(2H)-pyridazinone], in assay [1], the inhibition at 1 µg/mL came to 100% and the inhibition at 0.1 µg/mL stood at 27%.

For `COc1ccc(CNc2c(OCCSc3ccccc3)n[nH]c(=O)c2Cl)cc1OC` [Compound 4], in assay [1], the inhibition at 1 µg/mL came out at 100% and the inhibition at 0.1 µg/mL is 100%.

On to `COc1ccc(CNc2c(OCCSc3ccccc3)n[nH]c(=O)c2Br)cc1OC` [Compound 6, 4-bromo-5-(3,4-dimethoxyphenylmethyl-amino)-6-[2-(phenylthio)ethyloxy]-3(2H)-pyridazinone], for which, in assay [1], the inhibition at 1 µg/mL amounted to 100% and the inhibition at 0.1 µg/mL was 100%. For the same molecule, in assay [2], the inhibition in vivo at 3 mg/kg came to 33%.

Consider `COc1ccc(CNc2c(OCCCSc3ccccc3)n[nH]c(=O)c2Br)cc1OC` [Compound 7], for which, in assay [1], the inhibition at 1 µg/mL was 100% and the inhibition at 0.1 µg/mL stood at 74%.

With `COc1ccc(CNc2c(OCCS(=O)(=O)c3ccccc3)n[nH]c(=O)c2Br)cc1OC` [Compound 10, 4-bromo-5-(3,4-dimethoxyphenylmethylamino)-6-[2-(phenylsulfonyl)ethyloxy]-3(2H)-pyridazinone], the inhibition at 0.1 µg/mL in assay [1] stood at 100%.

Turning to `COc1ccc(CNc2c(OCCCS(=O)(=O)c3ccccc3)n[nH]c(=O)c2Br)cc1OC` [Compound 11], in assay [1], the inhibition at 0.1 µg/mL worked out at 71%.

Consider `COc1ccc(CNc2c(OCCSc3ccccc3)nn(CN3CCOCC3)c(=O)c2Br)cc1OC` [Compound 12], for which the inhibition at 0.1 µg/mL in assay [1] came to 100%. In assay [2], the inhibition in vivo at 3 mg/kg came out at 43%.

`COc1ccc(CNc2c(OCC[S+]([O-])c3ccccc3)nn(CN3CCOCC3)c(=O)c2Br)cc1OC` (stereo not drawn) [Compound 13]: the inhibition at 0.1 µg/mL in assay [1] was found to be 100%.

As to `COc1ccc(CNc2c(OCCSc3ccc(F)cc3)n[nH]c(=O)c2Br)cc1OC` [Compound 14, 4-bromo-5-(3,4-dimethoxyphenylmethylamino)-6-[2-(4fluorophenylthio)ethyloxy]-3(2H)-pyridazinone], the inhibition at 0.1 µg/mL in assay [1] was 100%. Moreover, the inhibition in vivo at 3 mg/kg in assay [2] was 23.3%.

In the case of `COc1ccc(CNc2c(OCC[S+]([O-])c3ccc(F)cc3)n[nH]c(=O)c2Br)cc1OC` (stereo not drawn) [Compound 15, 4-bromo-5-(3,4-dimethoxyphenylmethyl-amino)-6-[2-(4-fluorophenylsulfinyl)ethyloxy]-3(2H)-pyridazinone], the inhibition at 0.1 µg/mL in assay [1] stood at 100%. Besides, the inhibition in vivo at 3 mg/kg in assay [2] amounted to 52.4%.

Take `COc1ccc(CNc2c(OCCS(=O)(=O)c3ccc(F)cc3)n[nH]c(=O)c2Br)cc1OC` [Compound 16, 4-bromo-6-[2-(4-fluorophenylsulfonyl)ethyloxy]-5-(3,4-dimethoxyphenylmethylamino)-3(2H)-pyridazinone]: the inhibition at 0.1 µg/mL in assay [1] was 100%. Besides, the inhibition in vivo at 3 mg/kg in assay [2] is 35.7%.

Consider `COc1ccc(CNc2c(OCCSc3ccc(F)cc3)nn(CN3CCN(C)CC3)c(=O)c2Br)cc1OC` [Compound 17, 4-bromo-5-(3,4-dimethoxyphenylmethylamino)-6-[2-(4-fluorophenylthio)ethyloxy]-2-(4-methylpiperazinlylmethyl)-3(2H)-pyridazinone], for which, in assay [1], the inhibition at 0.1 µg/mL came to 100%.

For `COc1ccc(CNc2c(OCCSc3ccccc3Cl)n[nH]c(=O)c2Br)cc1OC` [Compound 18], the inhibition at 0.1 µg/mL in assay [1] came out at 100%. Moreover, in assay [2], the inhibition in vivo at 3 mg/kg was 30.1%.

For the molecule `COc1ccc(CNc2c(OCC[S+]([O-])c3ccccc3Cl)n[nH]c(=O)c2Br)cc1OC` (stereo not drawn) [Compound 19, 4-bromo-6-[2-(2-chlorophenylsulfinyl)ethyloxy]-5-(3,4-dimethoxyphenylmethylamino)-3(2H)-pyridazinone], the inhibition at 0.1 µg/mL in assay [1] is 100%. Also, in assay [2], the inhibition in vivo at 3 mg/kg was 33.8%.

`COc1ccc(CNc2c(OCCSc3cccc(Cl)c3)n[nH]c(=O)c2Br)cc1OC` [Compound 20]: in assay [1], the inhibition at 1 µg/mL came to 100% and the inhibition at 0.1 µg/mL worked out at 90%.

As to `O=c1[nH]nc(OCCSc2ccc(Cl)cc2)c(NCc2cccnc2)c1Cl` [Compound 23], in assay [1], the inhibition at 1 µg/mL was found to be 100% and the inhibition at 0.1 µg/mL came to 100%.

As to `COc1ccc(CNc2c(OCCSc3ccc(Cl)cc3)n[nH]c(=O)c2Cl)cc1OC` [Compound 24], in assay [1], the inhibition at 1 µg/mL worked out at 100% and the inhibition at 0.1 µg/mL turned out to be 100%.

Take `Cc1ccc(SCCOc2n[nH]c(=O)c(Cl)c2NCc2cccnc2)cc1` [Compound 27]: in assay [1], the inhibition at 1 µg/mL stood at 100% and the inhibition at 0.1 µg/mL turned out to be 80%.

With `COc1ccc(CNc2c(OCCSc3ccc(C)cc3)n[nH]c(=O)c2Cl)cc1OC` [Compound 28], in assay [1], the inhibition at 1 µg/mL was 100% and the inhibition at 0.1 µg/mL amounted to 100%.

Turning to `COc1ccc(CNc2c(OCC[S+]([O-])c3ccc(C)cc3)n[nH]c(=O)c2Cl)cc1OC` (stereo not drawn) [Compound 29], in assay [1], the inhibition at 1 µg/mL came to 100% and the inhibition at 0.1 µg/mL was 100%.

`COc1ccc(CNc2c(OCC[S+]([O-])c3ccc(C)cc3)n[nH]c(=O)c2Br)cc1OC` (stereo not drawn) [Compound 30, 4-bromo-5-(3,4-dimethoxyphenylmethylamino)-6-[2-(p-tolylsulfinyl)ethyloxy]-3(2H)-pyridazinone]: in assay [1], the inhibition at 1 µg/mL worked out at 100% and the inhibition at 0.1 µg/mL came out at 100%.

Regarding `COc1ccc(CNc2c(OCCSc3ccc(C)cc3C)n[nH]c(=O)c2Br)cc1OC` [Compound 31, 4-bromo-5-(3,4-dimethoxyphenylmethylamino)-6-[2-(2,4-dimethylphenylthio)ethyloxy]-3(2H)-pyridazinone], the inhibition at 0.1 µg/mL in assay [1] turned out to be 100%.

In the case of `COc1ccc(CNc2c(OCC[S+]([O-])c3ccc(C)cc3C)n[nH]c(=O)c2Br)cc1OC` (stereo not drawn) [Compound 32, 4-bromo-5-(3,4-dimethoxyphenylmethyl-amino)-6-[2-(2,4-dimethylphenylsulfinyl)ethyloxy]-3(2H)pyridazinone], the inhibition at 0.1 µg/mL in assay [1] was 100%.

Turning to `COc1ccc(CNc2c(OCCS(=O)(=O)c3ccc(C)cc3C)n[nH]c(=O)c2Br)cc1OC` [Compound 33, 4-bromo-5-(3,4-dimethoxyphenylmethyl-amino)-6-[2-(2,4-dimethylphenylsulfonyl)ethyloxy]-3(2H)-pyridazinone], the inhibition at 0.1 µg/mL in assay [1] was determined as 100%.

For the molecule `COc1ccc(SCCOc2n[nH]c(=O)c(Cl)c2NCc2cccnc2)cc1` [Compound 34], in assay [1], the inhibition at 1 µg/mL worked out at 100% and the inhibition at 0.1 µg/mL was 64%.

`COc1ccc(SCCOc2n[nH]c(=O)c(Cl)c2NCc2ccc(OC)c(OC)c2)cc1` [Compound 35]: in assay [1], the inhibition at 1 µg/mL worked out at 100% and the inhibition at 0.1 µg/mL is 83%.

Consider `COc1ccc(S(=O)(=O)CCOc2n[nH]c(=O)c(Cl)c2NCc2ccc(OC)c(OC)c2)cc1` [Compound 36], for which, in assay [1], the inhibition at 1 µg/mL came out at 100% and the inhibition at 0.1 µg/mL was 83%.

`COc1ccc(CNc2c(OCCSc3ccc(C#N)cc3)n[nH]c(=O)c2Br)cc1OC` [Compound 37]: in assay [1], the inhibition at 1 µg/mL stood at 100% and the inhibition at 0.1 µg/mL stood at 100%. The inhibition in vivo at 3 mg/kg in assay [2] turned out to be 35.4%.

With `COc1ccc(CNc2c(OCC[S+]([O-])c3ccc(C#N)cc3)n[nH]c(=O)c2Br)cc1OC` (stereo not drawn) [Compound 38], in assay [1], the inhibition at 0.1 µg/mL is 100%. Further, in assay [2], the inhibition in vivo at 3 mg/kg is 21.8%.

Take `COc1ccc(CNc2c(OCCSc3ccc([N+](=O)[O-])cc3)n[nH]c(=O)c2Br)cc1OC` [Compound 39, 4-bromo-5-(3,4-dimethoxyphenylmethylamino)-6-[2-(4-nitrophenylthio)ethyloxy]-3(2H)-pyridazinone]: in assay [1], the inhibition at 1 µg/mL amounted to 100% and the inhibition at 0.1 µg/mL worked out at 93%. Further, the inhibition in vivo at 3 mg/kg in assay [2] is 30.4%.

With `COc1ccc(CNc2c(OCC[S+]([O-])c3ccc([N+](=O)[O-])cc3)n[nH]c(=O)c2Br)cc1OC` (stereo not drawn) [Compound 40], the inhibition in vivo at 3 mg/kg in assay [2] was determined as 40.8%.

For `CCN(CC)C(=O)c1ccc(SCCOc2n[nH]c(=O)c(Br)c2NCc2ccc(OC)c(OC)c2)cc1` [Compound 41], in assay [1], the inhibition at 0.1 µg/mL turned out to be 100%.
